From patent US4038404A, “1,2,4-Triazole antimycotic compositions and use thereof” (Bayer Aktiengesellschaft, priority 1972, dated 1977) come the findings set out here.

Molecules are shown by their SMILES. Converted amounts (≈) assume the structure as drawn. Where two headings read alike, the source gives them in different places.

Test [1] has as its system Trichophyton mentagrophytes. As to the kind of experiment: Series dilution test in vitro, Trichophyton mentagrophytes. It is filed as cell-based. Particulars: for MIC: Trichophyton mentagrophytes, read-out: Minimum inhibitory concentration (MIC). As to the method: (§1) 1. DETERMINATION OF THE ANTI-MYCOTIC ACTION SPECTRUM IN VITRO BY THE SERIES DILUTION TEST.
(§2) Description of the Experiment
(§3) The nutrient substrates used were Sabourauds' milieu d'epreuve for dermatophytes and mould fungi and meat broth-glucose bouillon for blastomyces and biphase fungi. The incubation temperature was 28° C. and the incubation time was 24 to 96 hours.

Test [2] deals with Candida albicans. As to the kind of experiment: Series dilution test in vitro, Candida albicans. It is filed as cell-based. The method, then:
as §1, §2, §3

The next test relates to Penicillium commune. As to the kind of experiment: Series dilution test in vitro, Penicillium commune. It is filed as cell-based. Particulars: read-out: Minimum inhibitory concentration (MIC). The method, then:
as §1, §2, §3

The subject of another test is Aspergillus niger. As to the kind of experiment: Series dilution test in vitro, Aspergillus niger. Type of test: cell-based. The following applies: for MIC: Aspergillus niger, read-out: Minimum inhibitory concentration (MIC). As to the method: as §1, §2, §3
The test system of a further test is Microsporon felineum. Briefly: Series dilution test in vitro, Microsporon felineum. It is filed as cell-based. Particulars: 28° C., 24 to 96 hours; read-out: Minimum inhibitory concentration (MIC). The method, then: as §1, §2, §3
Test [3] deals with Candida albicans. As to the kind of experiment: Candidosis of mice. Type of test: in vivo, Mice of Type SPF-CF1. Particulars: 2 × 100 mg/kg orally, one hour before and seven hours after infection, survivors on 6th day. The method, then: as §2
Mice of Type SPF-CF1 were intravenously infected with 1-2 × 10^6 logarithmically growing Candida cells suspended in physiological sodium chloride solution.
One hour before and seven hours after infection the animals were treated orally with 2 × 100 mg of the preparations/kg of body weight.
Untreated animals died of the infection 3 to 6 days after infection. The survival rate on the 6th day after infection was about 5% in the case of untreated control animals.

For test [4], the system named is Trichophyton mentagrophytes. As to the kind of experiment: Topical application in experimental trichophytosis of guinea pigs. It is filed as in vivo. Details: key to the marks not given beside the values. The following applies: 1% strength solution applied locally for 11 to 14 days.
Excerpt: a. Topical Application in Experimental Trichophytosis of Guinea Pigs (Pathogen: Trichophyton metagrophytes)
as §2
A 1% strength solution of the active compounds in a dimethylsulphoxide/glycerine/water mixture (1:3:6) or in polyethylene glycol 400 was applied locally for 11 to 14 days after the trichophytosis had been produced experimentally.

The subject of test [5] is Trichophyton mentagrophytes. Briefly: Oral administration on Quinckeanum trichophytosis of white mice. Type of test: in vivo. Details: key to the marks not given beside the values. Particulars: 100 mg/kg orally twice daily up to the eighth day of the infection. The method, then: b. Action, on Oral Administration, on Quinckeanum Trichophytosis of White Mice
It was possible to suppress the development of the Quinckeanum infection in mice with doses of 100 mg/kg of body weight given orally twice daily up to the eighth day of the infection.

[6] abbreviates: n.s. (no serum added), 28° C., 24 to 96 hours.
Setting [7] is: w.s. (with 30% serum added), 28° C., 24 to 96 hours.
[8] abbreviates: n.s. (no serum added), 28° C., 24 to 96 hours, read-out: Minimum inhibitory concentration (MIC).
Setting [9] is: w.s. (with 30% serum added), 28° C., 24 to 96 hours, read-out: Minimum inhibitory concentration (MIC).
Setting [10] is: n.s. (no serum added), * = 90% inhibition of growth.
The mark [11] stands for this setting: w.s. (with 30% serum added), * = 90% inhibition of growth.
Where [12] appears, read: n.s. (no serum added), * = 90% inhibition of growth, read-out: Minimum inhibitory concentration (MIC).

With `CC(C)(C)C(=O)C(Oc1ccc(Cl)cc1Cl)n1cncn1` (stereo not shown) [Example 1, 1-[(2',4'-dichloro)-phenoxy]-1-[1',2', 4'-triazolyl-(1')]-3,3-dimethyl-butan-2-one], the MIC in test [1] (setting [6]) is 4 µg/mL (≈ 12.2 µM); in test [1] (setting [7]), 4 µg/mL (≈ 12.2 µM); in the test on Candida albicans [2] (setting [8]) it was 40 µg/mL (≈ 122 µM); in the test with Candida albicans [2] (setting [9]) it was 40 µg/mL (≈ 122 µM); with Penicillium commune (28° C., 24 to 96 hours), more than 100 µg/mL; with Aspergillus niger (setting [6]), 100 µg/mL (≈ 305 µM). Besides, the MIC in the test on Aspergillus niger (setting [7]) and with Microsporon felineum was 100 µg/mL (≈ 305 µM) throughout. The “Action against Candida albicans” value with Candida albicans [3] is “+ (50% survivors on the 6th day after infection)”.
As to `CC(C)(C)C(=O)C(Oc1ccc(Cl)cc1)(c1ccccc1)n1cncn1` (stereo not shown) [Example 5, 1-[(4'-chlorophenoxy)]-1-[phenyl]-1-[1',2',4'triazolyl-(1')]-3,3-dimethyl-butan-2-one], the MIC in test [1] (setting [10]) was 1 µg/mL (≈ 2.7 µM); in test [1] (setting [11]), 32 µg/mL (≈ 86.5 µM); in the test with Candida albicans [2] (setting [8]), more than 64 µg/mL; with Penicillium commune (28° C., 24 to 96 hours) it was more than 64 µg/mL; in the test on Aspergillus niger (setting [6]), more than 64 µg/mL; with Aspergillus niger (setting [7]), more than 64 µg/mL. Moreover, the MIC in the test on Microsporon felineum is more than 64 µg/mL.
Take `O=C(c1ccc(Cl)cc1)C(Oc1ccc(Cl)cc1Cl)n1cncn1` (stereo not shown) [Example 6]: the MIC in test [1] (setting [10]) was 4 µg/mL (≈ 10.5 µM); in test [1] (setting [11]), 10 µg/mL (≈ 26.1 µM); with Candida albicans [2] (setting [12]) it was 10 µg/mL (≈ 26.1 µM); in the test on Candida albicans [2] (w.s. (with 30% serum added), * = 90% inhibition of growth, read-out: Minimum inhibitory concentration (MIC)) it was 100 µg/mL (≈ 261 µM); in the test on Penicillium commune (28° C., 24 to 96 hours), more than 100 µg/mL; in the test on Aspergillus niger (setting [6]), 100 µg/mL (≈ 261 µM). Besides, the values for the MIC in the test on Aspergillus niger (setting [7]) and in the test with Microsporon felineum were more than 100 µg/mL and 40 µg/mL (≈ 105 µM), respectively. Moreover, in the test on Candida albicans [3], the “Action against Candida albicans” value is listed as “+ (50% survivors on the 6th day after infection)”.
Consider `CC(C)(C)C(=O)C(Oc1ccc(F)cc1)n1cncn1` (stereo not shown) [Example 9], for which the MIC in test [1] (setting [6]) was 8 µg/mL (≈ 28.8 µM); in test [1] (setting [7]) it was 32 µg/mL (≈ 115 µM); in the test with Candida albicans [2] (setting [8]) it was 100 µg/mL (≈ 361 µM); in the test with Candida albicans [2] (setting [9]), more than 64 µg/mL; with Penicillium commune (28° C., 24 to 96 hours), more than 64 µg/mL. Also, the “Action against Candida albicans” value with Candida albicans [3] is “++ (60-80% survivors on the 6th day after infection)”.
Take `CC(C)(C)C(=O)C(Oc1ccc(-c2ccccc2)cc1)n1cncn1` (stereo not shown) [Example 12]: the MIC in test [1] (setting [6]) is less than 1 µg/mL; in test [1] (setting [7]) it was less than 1 µg/mL; in the test on Candida albicans [2] (setting [12]) it was 100 µg/mL (≈ 298 µM); in the test with Candida albicans [2] (setting [9]) it was 100 µg/mL (≈ 298 µM); in the test with Penicillium commune (* = 90% inhibition of growth), 100 µg/mL (≈ 298 µM); in the test with Aspergillus niger (setting [10]) it was 40 µg/mL (≈ 119 µM). Besides, the MIC was determined as 100 µg/mL (≈ 298 µM) in the test on Aspergillus niger (setting [7]) and 40 µg/mL (≈ 119 µM) with Microsporon felineum. In test [4], the “Action against Trichophyton mentagrophytes” value is on record as “++++”. In addition, the “Oral action against Trichophyton mentagrophytes” value in test [5] was “++”. Besides, the “Action against Candida albicans” value in the test on Candida albicans [3] is “+ (50% survivors on the 6th day after infection)”.
Turning to `CC(C)(C)C(=O)C(Oc1ccccc1)n1cncn1` (stereo not shown) [Example 15], the MIC is 32 µg/mL (≈ 123 µM) in test [1] (setting [6]); 32 µg/mL (≈ 123 µM) in test [1] (setting [7]); more than 64 µg/mL in the test on Candida albicans [2] (setting [8]); more than 64 µg/mL with Penicillium commune (28° C., 24 to 96 hours).
Turning to `Cc1ccc(OC(C(=O)C(C)(C)C)n2cncn2)cc1C` (stereo not shown) [Example 17], the MIC in test [1] (setting [6]) was 32 µg/mL (≈ 111 µM); in test [1] (setting [7]), more than 64 µg/mL; in the test with Candida albicans [2] (setting [12]), 64 µg/mL (≈ 223 µM); in the test with Candida albicans [2] (setting [9]) it was more than 64 µg/mL; in the test with Penicillium commune (28° C., 24 to 96 hours), more than 64 µg/mL.
As for `CC(C)(C)C(=O)C(Oc1cc(Cl)c(Cl)cc1Cl)n1cncn1` (stereo not shown) [Example 20], the MIC was 32 µg/mL (≈ 88.2 µM) in test [1] (setting [6]); more than 64 µg/mL in test [1] (setting [7]); more than 64 µg/mL in the test with Candida albicans [2] (setting [8]); more than 64 µg/mL in the test on Penicillium commune (28° C., 24 to 96 hours).
For `CC(C)(C)C(=O)C(Oc1ccc(Cl)cc1Cl)(c1ccccc1)n1cncn1` (stereo not shown) [Example 21], the MIC in test [1] (setting [6]) is 8 µg/mL (≈ 19.8 µM); in test [1] (setting [7]) it was 64 µg/mL (≈ 158 µM); with Candida albicans [2] (setting [8]), more than 64 µg/mL; in the test on Candida albicans [2] (setting [9]), more than 64 µg/mL; in the test with Penicillium commune (28° C., 24 to 96 hours) it was more than 64 µg/mL.
`CC(C)(C)C(=O)C(Oc1ccc(Cl)cc1)n1cncn1` (stereo not shown) [Example 27]: the MIC was 4 µg/mL (≈ 13.6 µM) in test [1]; 40 µg/mL (≈ 136 µM) in the test with Candida albicans [2] (read-out: Minimum inhibitory concentration (MIC), n.s. (no serum added), 28° C., 24 to 96 hours); 100 µg/mL (≈ 340 µM) in the test with Candida albicans [2] (read-out: Minimum inhibitory concentration (MIC), w.s. (with 30% serum added), 28° C., 24 to 96 hours); more than 100 µg/mL in the test on Penicillium commune; 100 µg/mL (≈ 340 µM) in the test with Aspergillus niger. The “Minimum inhibitory concentration (MIC)” value worked out at 4 µg/mL (≈ 13.6 µM) in test [1] (setting [7]) and 100 µg/mL (≈ 340 µM) in the test with Aspergillus niger (setting [7]). For the same compound, the “Action against Trichophyton mentagrophytes” value in test [4] is recorded as “++”. In test [5], the “Oral action against Trichophyton quinckeanum” value is listed as “++++”. For the same compound, in the test on Candida albicans [3], the “Action against Candida albicans” value is “++++ (>80% survivors on the 6th day after infection)”.
